Tested on: PAF-induced primary aggregation
Assay: PAF-induced primary aggregation in human platelet-rich plasma
Type: cell-based
Conditions: indomethacin-treated PRP, test compound incubated two minutes at 37° C. before sub-optimal dose of PAF, read-out: IC50, inhibition of PAF-induced primary aggregation in human platelet-rich plasma
Description: PAF-Induced Primary Aggregation in Human Platelet-Rich Plasma
Human venous blood was collected from healthy male donors, who had denied any medication during the previous 14 days. Nine volumes of blood were mixed with one volume of 3.24% trisodium citrate. The citrated blood was centrifuged at 160 g for ten minutes at 22° C. to obtain platelet rich plasma (PRP). The platelets were then counted on a Coulter counter, and the platelet count was adjusted to 200,000 per μl with plasma. The PRP was then treated with indomethacin dissolved in dimethylsulfoxide (10 μg indomethacin per ml PRP). A stock solution of PAF (C16 or C18 β-acetyl-γ-O-alkyl-L-α-phosphatidylcholine; 1 mg/ml) was prepared as a solution in chloroform-methanol (9:1 v/v). A 10 μl portion of the stock solution was evaporated to dryness under nitrogen and dissolved in 0.15M sodium chloride-0.15M Tris.HCl (90:10 v/v) buffer containing 0.25% bovine albumin. Small volumes of the PAF solution (5-15 μl) were added to 0.5 ml samples of indomethacin-treated PRP and the aggregation trace was recorded using an aggregometer. A dose reponse curve was obtained and a sub-optimal dose of PAF was determined for use in inhibition studies.
Indomethacin-treated PRP (0.5 ml) was incubated with a test compound dissolved in buffer (ca. pH 5) or dimethylsulfoxide for two minutes at 37° C. prior to addition of the sub-optimal dose of PAF. The subsequent aggregation trace was recorded and the present inhibition of PAF primary aggregation was determined by comparison with a control PAF-induced aggregation trace. (Due to variability in PAF-induced aggregation within a given PRP sample, a control PAF-induced aggregation was determined every two or three samples.) An inhibition dose-response curve was determined for each test compound and the IC50 value calculated. Table I lists IC50 's for illustrative examples of the compounds of this invention.

Row | Compound | IC50
1 | CCOC(=O)CCCCn1cnc2ccncc21 [7(A), Ethyl 5-(3H-imidazo[4,5-c]pyridin-3-yl)pentanoate] | 500 µM
2 | CCOC(=O)CCCCn1cnc2cnccc21 [7(B), Ethyl 5-(1H-imidazo[4,5-c]pyridin-1-yl)pentanoate] | 185 µM
3 | CCOC(=O)CCCCCn1cnc2ccncc21 [8(A), Ethyl 6-(3H-imidazo[4,5-c]pyridin-3-yl)hexanoate] | 102 µM
4 | CCOC(=O)CCCCCn1cnc2cnccc21 [8(B), Ethyl 6-(1H-imidazo[4,5-c]pyridin-1-yl)hexanoate] | 20.5 µM
5 | CCOC(=O)CCCCCCn1cnc2ccncc21 [9(A), Ethyl 7-(3H-imidazo[4,5-c]pyridin-3-yl)heptanoate] | 48 µM
6 | CCOC(=O)CCCCCCn1cnc2cnccc21 [9(B), Ethyl 7-(1H-imidazo[4,5-c]pyridin-1-yl)heptanoate] | 20 µM
7 | CCOC(=O)C(C)(C)CCCCn1cnc2ccncc21 [10(A), Ethyl 2,2-dimethyl-6-(3H-imidazo[4,5-c]pyridin-3-yl)hexanoate] | 43.5 µM
8 | CCOC(=O)C(C)(C)CCCCn1cnc2cnccc21 [10(B), Ethyl 2,2-dimethyl-6-(1H-imidazo[4,5-c]pyridin-1-yl)hexanoate] | 15 µM
9 | CN(C(=O)CCCCCCn1cnc2ccncc21)C1CCCCC1 [11(A), N-Cyclohexyl-N-Methyl-7-(3H-imidazo[4,5-c]pyridin-3-yl)heptanamide] | 500 µM
10 | c1cc2ncn(CCCCc3nnnn3C3CCCCC3)c2cn1 [12(A), 3-[4-(1-Cyclohexyl-1H-tetrazol-5-yl)butyl]-3H-imidazo[4,5-c]pyridine] | 56 µM
11 | c1cc2c(cn1)ncn2CCCCc1nnnn1C1CCCCC1 [12(B), 1-[4-(1-Cyclohexyl-1H-tetrazol-5-yl)butyl]-1H-imidazo[4,5-c]pyridine] | 8 µM
12 | c1cnc2c(c1)ncn2CCCCc1nnnn1C1CCCCC1 [16(A), 3-[4-(1-Cyclohexyl-1H-tetrazol-5-yl)butyl]-3H-imidazo[4,5-b]pyridine] | 118 µM
13 | c1cnc2ncn(CCCCc3nnnn3C3CCCCC3)c2c1 [16(B), 1-[4-(1-Cyclohexyl-1H-tetrazol-5-yl)butyl]-1H-imidazo[4,5-b]pyridine] | 112 µM
14 | c1cc2c(cn1)ncn2CCCCCc1nnnn1C1CCCCC1 [Example 13, 1-[5-(1-Cyclohexyl-1H-tetrazol-5-yl)pentyl]-1H-imidazo[4,5-c]pyridine] | 33 µM

Continued, values first:

Row | IC50 | Compound
15 | 136 µM | CCOC(=O)c1ccc(Cn2cnc3ccncc32)cc1 [1(A), Ethyl 4-(3H-imidazo[4,5-c]pyridin-3-ylmethyl)benzoate]
16 | 46 µM | CCOC(=O)c1ccc(Cn2cnc3cnccc32)cc1 [1(B), Ethyl 4-(1H-imidazo[4,5-c]pyridin-1-ylmethyl)benzoate]
17 | 165 µM | CCOC(=O)c1cccc(Cn2cnc3ccncc32)c1 [2(A), Ethyl 3-(3H-imidazo[4,5-c]pyridin-3-ylmethyl)benzoate]
18 | 80 µM | CCOC(=O)c1cccc(Cn2cnc3cnccc32)c1 [2(B), Ethyl 3-(1H-imidazo[4,5-c]pyridin-1-ylmethyl)benzoate]
19 | 140 µM | CCOC(=O)CCCn1cnc2ccncc21 [6(A), Ethyl 4-(3H-imidazo[4,5-c]pyridin-3-yl)butanoate]
20 | 58 µM | CCOC(=O)c1ccc(Cn2cnc3cccnc32)cc1 [14(A), Ethyl 4-(3H-imidazo[4,5-b]pyridin-3-ylmethyl)benzoate]
21 | 29 µM | CCOC(=O)c1ccc(Cn2cnc3ncccc32)cc1 [14(B), Ethyl 4-(1H-imidazo[4,5-b]pyridin-1-ylmethyl)benzoate]
22 | 49.5 µM | O=C(c1ccc(Cn2cnc3cnccc32)cc1)N1CCOCC1 [Example 3, [4-(1H-imidazo[4,5-c]pyridin-1-ylmethyl)phenyl](4-morpholinyl)methanone]
23 | 215 µM | O=C(c1ccc(Cn2cnc3ccncc32)cc1)N1CCOCC1 [Example 4, [4-(3H-imidazo[4,5-c]pyridin-3-ylmethyl)phenyl](4-morpholinyl)methanone]
24 | 5 µM | CN(C(=O)c1ccc(Cn2cnc3cnccc32)cc1)C1CCCCC1 [Example 5, N-Cyclohexyl-N-methyl-4-(1H-imidazo[4,5-c]pyridin-1-yl-methyl)benzamide]
25 | 87 µM | O=C(c1ccc(Cn2cnc3ncccc32)cc1)N1CCOCC1 [Example 15, [4-(1H-Imidazo[4,5-b]pyridin-1-ylmethyl)phenyl](4-morpholinyl)methanone]

— patent publication US4804658A, “Imidazopyridine derivatives and pharmaceutical compositions” (G. D. Searle & Co., priority 1986, dated 1989)
